These results are taken from patent publication US5032109A, “Electrolytic transdermal delivery of polypeptides” (Drug Delivery Systems Inc., priority 1989, dated 1991).

For data set [1] the following is noted: from Herkovits et al. 1978, cited from earlier work; for Setschenow constant, sum: peptide plus hydrophobic; for -F.° (free energy of transfer): transfer from water to water plus cosolvent; for Setschenow constant, for --CH2--: average hydrophobic group; for Setschenow constant, for peptide: average peptide group.
Data set [2] in a line: Electrical conductivity of urine in diabetes insipidus volunteers wearing Pitressin patches (Model Example 2). The data set is classed as in vivo, human. The following applies: powered large patch, 300 units Pitressin, five days. The procedure:
Six adult male volunteers each having been diagnosed as having diabetes insipidus are tested. Three are fitted with the large-size human patch, as in Example 2, and the three controls are fitted with drug-loaded, identical patches without batteries.
The drug reservoirs of the large electrolytic patches contain 15 ml (300 units) of Pitressin (Parke-aDavis Co., Morris Plains, N.J.). The return reservoir contains 0.9 percent saline buffered to pH 7.2 with ammonium dihydrogen phosphate.
Urine samples are taken from each subject three times per day for five days.

Data set [3] can be described thus: Total urine output of beagle dogs wearing lypressin electrolytic patches (Model Example 1). Type of data set: in vivo. The following applies: four beagle dogs, powered patch, 10 ua/cm^2, ten days, Diapid 0.185 mg lypressin/ml. The protocol: Eight beagle dogs are employed. All of them are clipped on the back, washed with castille soap, and fitted with the small animal electrolytic patches of Example 1, four of them without batteries.
The drug reservoir of each patch contains 6 ml. Diapid 50 USP, 0.185 mg lypressin/ml. The return reservoir contains 0.9 percent saline. A current regulator is set to deliver 10 ua/cm^2.
Over a period of ten days the total urine output of each dog is measured by standard techniques.

Data set [4] in a line: Blood pressure of hypertensive volunteers wearing atriopeptin patches (Model Example 3). Type of data set: in vivo, human. Conditions: hypertensive female volunteers, powered patches, 0.01M atriopeptin in 0.1M sodium perchlorate, about 10 ua/cm^2. The procedure: Ten adult female volunteers, diagnosed as having hypertension, are chosen for this experiment. All are fitted with the large-size electrolytic transdermal patch, as in Example 2. […] Five control patches have no batteries. […] The blood pressure of the ten subjects is measured four times a day.

Details of data set [5]: species or system human. Conditions: in vivo. The text has this:
Ten adult female volunteers, diagnosed as having hypertension, are chosen for this experiment. All are fitted with the large-size electrolytic transdermal patch, as in Example 2. […] Five control patches have no batteries.

Counter-ions that a name gives are not always drawn.

Take `CCC(=O)[O-].[Na+]` [Sodium proprionate]: in data set [1], the “Setschenow constant, sum” value is given as -0.017 and the “-F.° (free energy of transfer)” value is -23 cal/mo.

With `[I-].[K+]` [Potassium iodide], in data set [1], the “Setschenow constant, for --CH2--” value was 0.01; the “Setschenow constant, for peptide” value was -0.083; the “Setschenow constant, sum” value is -0.073; the “-F.° (free energy of transfer)” value was -100 cal/mo.

For `N=C(N)N` [Guanidine hydrochloride, guanidine hydrochloride], in data set [1], the “Setschenow constant, for --CH2--” value is -0.027; the “Setschenow constant, for peptide” value is reported as -0.061; the “Setschenow constant, sum” value is reported as -0.088; the “-F.° (free energy of transfer)” value is on record as -120 cal/mo.

In the case of `[O-][Cl+3]([O-])([O-])O` [Sodium perchlorate], in data set [1], the “Setschenow constant, for --CH2--” value was 0.021; the “Setschenow constant, for peptide” value was -0.097; the “Setschenow constant, sum” value is reported as -0.076; the “-F.° (free energy of transfer)” value is on record as -104 cal/mo.

Turning to `C1COCCO1` [Dioxane], in data set [1], the “Setschenow constant, for --CH2--” value was -0.013; the “Setschenow constant, for peptide” value is “+0.029”; the “Setschenow constant, sum” value was 0.016; the “-F.° (free energy of transfer)” value is 22 cal/mo.

For the compound `NC(=O)CC[C@@H]1NC(=O)[C@H](Cc2ccccc2)NC(=O)[C@H](Cc2ccc(O)cc2)NC(=O)[C@@H](N)CSSC[C@@H](C(=O)N2CCC[C@H]2C(=O)N[C@@H](CCCN=C(N)N)C(=O)NCC(N)=O)NC(=O)[C@H](CC(N)=O)NC1=O` [Pitressin, vasopressin], the “electrical conductivity of the urine versus control subjects (patches without batteries)” value in data set [2] was “significantly higher”.

For the compound `NCCCC[C@H](NC(=O)[C@@H]1CCCN1C(=O)[C@@H]1CSSC[C@H](N)C(=O)N[C@@H](Cc2ccc(O)cc2)C(=O)N[C@@H](Cc2ccccc2)C(=O)N[C@@H](CCC(N)=O)C(=O)N[C@@H](CC(N)=O)C(=O)N1)C(=O)NCC(N)=O` [lypressin], the “average total urine volume versus control dogs (patches without batteries)” value in data set [3] is given as “significantly lower”.

With `CCO` [Ethanol], in data set [1], the “Setschenow constant, for --CH2--” value was -0.014; the “Setschenow constant, for peptide” value is on record as “+0.037”; the “Setschenow constant, sum” value is recorded as 0.023; the “-F.° (free energy of transfer)” value was 31 cal/mo.

Consider `[Br-].[Na+]` [Sodium bromide], for which, in data set [1], the “Setschenow constant, for --CH2--” value is 0.025; the “Setschenow constant, for peptide” value was -0.037; the “Setschenow constant, sum” value is given as -0.012; the “-F.° (free energy of transfer)” value was -16 cal/mo.

Consider `CCCNC(N)=O` [Propylurea], for which, in data set [1], the “Setschenow constant, sum” value is recorded as -0.047 and the “-F.° (free energy of transfer)” value is -64 cal/mo.

As to `[I-].[Na+]` [Sodium iodide], in data set [1], the “Setschenow constant, for --CH2--” value was 0.01; the “Setschenow constant, for peptide” value is given as -0.087; the “Setschenow constant, sum” value is -0.077; the “-F.° (free energy of transfer)” value is -105 cal/mo.

On to atriopeptin, for which the “average blood pressure versus controls (patches without batteries)” value in data set [4] is on record as “significantly lower”. Moreover, the “drug delivered per hour” value in data set [5] is “about 200 nanograms of drug per hour”.

For the compound `CCCC(=O)[O-].[Na+]` [Sodium butyrate], in data set [1], the “Setschenow constant, sum” value was -0.038 and the “-F.° (free energy of transfer)” value is -51 cal/mo.

In the case of `NC(N)=O` [Urea], in data set [1], the “Setschenow constant, for --CH2--” value is reported as -0.01; the “Setschenow constant, for peptide” value is given as -0.018; the “Setschenow constant, sum” value is reported as -0.028; the “-F.° (free energy of transfer)” value is given as -38 cal/mo.

For `[Cl-].[Na+]` [Sodium chloride], in data set [1], the “Setschenow constant, for --CH2--” value is reported as 0.033; the “Setschenow constant, for peptide” value is listed as -0.037; the “Setschenow constant, sum” value is reported as -0.004; the “-F.° (free energy of transfer)” value is -5 cal/mo.
